Source: patent US20250122147A1, “ARYL CYCLOHEXANEDIONE DERIVATIVE OR SALT THEREOF, PEST CONTROL AGENT CONTAINING SAME, AND METHOD FOR USE THEREOF” (ADEKA Corporation, priority 2021, published 2025)

Each compound was assayed on Plutella xylostella (assay: Insecticidal test against Plutella xylostella). Conditions: 500 ppm drug solution; Chinese cabbage seedlings with eggs immersed about 30 sec; six days after immersion; 25° C.
Source text: Six days after the immersion in the drug solution, the number of surviving insects was examined. […] In triplicate using 10 per plot.

| Structure (SMILES) | corrected mortality, rating of assessment |
| --- | --- |
| O=C1CC(c2ccc(C(F)(F)F)nc2)CC(O)=C1C(=O)Nc1ccc(F)cc1 (stereo not drawn) [1-68] | D or higher |
| O=C1CC(c2ccc(C(F)(F)F)cc2)CC(O)=C1C(=O)Nc1ccc(F)nc1 (stereo not drawn) [1-146] | D or higher |
| O=C1CC(c2ccc(C(F)(F)F)cc2)CC(O)=C1C(=O)Nc1ccnc(F)c1 (stereo not drawn) [1-147] | D or higher |
| Cc1ccc(C2CC(=O)C(C(=O)Nc3ccc(F)cn3)=C(O)C2)cc1 (stereo not drawn) [1-148] | D or higher |
| O=C1CC(c2ccc(C(F)(F)F)nc2)CC(O)=C1C(=O)Nc1ccc(F)cn1 (stereo not drawn) [1-149] | D or higher |
| O=C1CC(c2ccc(C(F)(F)F)nc2)CC(O)=C1C(=O)Nc1ccnc(F)c1 (stereo not drawn) [1-151] | D or higher |
| O=C1CC(c2ccc(C(F)(F)F)cc2)CC(O)=C1C(=O)Nc1ncc(F)cn1 (stereo not drawn) [1-155] | D or higher |
| O=C1CC(c2ccc(C(F)(F)F)cc2)CC(O)=C1C(=O)Nc1cccc2ncccc12 (stereo not drawn) [1-156] | D or higher |
| O=C1CC(c2ccc(C(F)(F)F)cc2)CC(O)=C1C(=O)Nc1ccc(F)nn1 (stereo not drawn) [1-162] | D or higher |
| CS(=O)(=O)c1ccc(C2CC(=O)C(C(=O)Nc3ccc(F)cn3)=C(O)C2)cc1 (stereo not drawn) [1-165] | D or higher |
| Cn1ccc(NC(=O)C2=C(O)CC(c3ccc(C(F)(F)F)cc3)CC2=O)n1 (stereo not drawn) [1-167] | D or higher |
| O=C1CC(c2ccc(C(F)(F)F)cc2)CC(O)=C1C(=O)Nc1ccc(S(F)(F)(F)(F)F)cc1 (stereo not drawn) [1-184] | D or higher |
| O=C1CC(c2ccc([N+](=O)[O-])cc2)CC(O)=C1C(=O)Nc1ccc(F)cc1 (stereo not drawn) [1-207] | D or higher |
| CSc1ccc(C2CC(=O)C(C(=O)Nc3ccc(F)cc3)=C(O)C2)cc1 (stereo not drawn) [1-208] | D or higher |
| O=C1CC(c2ccc(S(=O)(=O)C(F)(F)F)cc2)CC(O)=C1C(=O)Nc1ccc(F)cc1 (stereo not drawn) [1-209] | D or higher |
| CS(=O)(=O)c1ccc(C2CC(=O)C(C(=O)Nc3ccc(F)cc3)=C(O)C2)cc1 (stereo not drawn) [1-210] | D or higher |
| O=C1CC(c2ccc([S+]([O-])C(F)(F)F)cc2)CC(O)=C1C(=O)Nc1ccc(F)cc1 (stereo not drawn) [1-211] | D or higher |
| C[S+]([O-])c1ccc(C2CC(=O)C(C(=O)Nc3ccc(F)cc3)=C(O)C2)cc1 (stereo not drawn) [1-212] | D or higher |
| O=C1CC(c2ccc(SC(F)(F)F)cc2)CC(O)=C1C(=O)Nc1ccc(F)cc1 (stereo not drawn) [1-213] | D or higher |
| O=C1CC(c2ccc3c(c2)OCO3)CC(O)=C1C(=O)Nc1ccc(F)cc1 (stereo not drawn) [1-222] | D or higher |
| O=C1CC(c2cnco2)CC(O)=C1C(=O)Nc1ccc(F)cc1 (stereo not drawn) [1-223] | D or higher |
| O=C1CC(c2ccc(Br)cn2)CC(O)=C1C(=S)Nc1ccc(F)cc1 (stereo not drawn) [1-229] | D or higher |
| O=C1CC(c2ccc(C(F)(F)F)nc2)CC(O)=C1C(=S)Nc1ccc(F)cn1 (stereo not drawn) [1-231] | D or higher |
| CS(=O)(=O)c1ccc(C2CC(=O)C(C(=O)Nc3ccc(Cl)cc3)=C(O)C2)cc1 (stereo not drawn) [1-232] | D or higher |
| C[S+]([O-])c1ccc(C2CC(=O)C(C(=O)Nc3ccc(Cl)cc3)=C(O)C2)cc1 (stereo not drawn) [1-233] | D or higher |
| CSc1ccc(C2CC(=O)C(C(=O)Nc3ccc(Cl)cc3)=C(O)C2)cc1 (stereo not drawn) [1-234] | D or higher |
| O=C1CC(c2ccc(SC(F)(F)F)cc2)CC(O)=C1C(=O)Nc1ccc(Cl)cc1 (stereo not drawn) [1-235] | D or higher |

The compounds below were run on Laodelphax striatellus (assay: Insecticidal test against Laodelphax striatellus). Conditions: 500 ppm drug solution; rice seedlings immersed 30 seconds; three-instar insects; eight days after inoculation.

| Structure (SMILES) | corrected mortality, rating of assessment |
| --- | --- |
| O=C1CC(c2ccc(C(F)(F)F)nc2)CC(O)=C1C(=O)Nc1ccc(F)cc1 (stereo not drawn) [1-68] | D or higher |
| CC(C)NC(=S)C1=C(O)CC(c2ccc(C(F)(F)F)cc2)CC1=O (stereo not drawn) [1-84] | D or higher |
| O=C1CC(c2ccc(C(F)(F)F)nc2)CC(O)=C1C(=O)Nc1ccc(F)cn1 (stereo not drawn) [1-149] | D or higher |
